# Reference: US6417167B1, “Lyophilized compositions containing shingoglycolipid and process for preparing them” (Kirin Beer Kabushiki Kaisha, priority 1997, dated 2002)
# Assay: Excipient appropriate to lyophilization 2: re-solubility after storage
# Assay type: physicochemical
# Conditions: lyophilized, Polysorbate 20 0.5%, 25° C.
# Procedure: The lyophilized preparations having mannitol and sucrose added thereto were observed on their variation with the passage of time.
# First, Polysorbate 20 was dissolved in distilled water in a concentration of 0.5%, and the saccharides were dissolved in such concentrations as listed in Table 7. Next, 20 mg of the active component (KRN7000) was weighed and stirred in 100 ml of the solvents in a heated bath to 80° C. for 20 minutes in order to form a solution. After cooling with running water, the mixture was filtered through a 0.22 μm filter, and transparent colorless glass vials having a volume of 5 ml were charged with a 1 ml portion of each of a variety of solutions thus obtained and subjected to lyophilization. Lyophilization was carried out under the condition of preliminary freezing at −40° C. for 2 hours and drying at −20° C. for 24 hours, 10° C. for 12 hours, and finally at 25° C. for 5 hours to give the lyophilized product. The degree of vacuum was set at 0.1 Torr or less during drying step.
# After the lyophilization step, the lyophilized composition was stored at 25° C. After storage for 1 month, the lyophilized composition was reconstituted in 1 ml of distilled water for injection, left standing for 30 minutes, and solubility was judged when the foams generated on reconstitution disappeared. The samples judged in solution were further stored, and judged again of their solubility after 4 months.
# The solubility was judged by cleaning the outside of the vial and placing it beneath the white light source in a darkroom for observation with naked eye at the position of a luminous intensity of about 5,000 lux. When the sample was clear with no precipitates, it was judged that the active component was dissolved.
structure (smiles),measurement,setting,value
"CCCCCCCCCCCCCCCCCCCCCCCCCC(=O)N[C@@H](CO[C@H]1O[C@H](CO)[C@H](O)[C@H](O)[C@H]1O)[C@H](O)[C@H](O)CCCCCCCCCCCCCC [KRN7000, (2S,3S,4R)-1-(α-D-galactopyranosyloxy)-2-hexacosanoylamino-3,4-octadecanediol]",Re-solubility after storage (by naked eye),"Mannitol 10%, 1 month",− (dissolved)
same,Re-solubility after storage (by naked eye),"Mannitol 10%, 4 months",+ (not dissolved (or deposited))
same,Re-solubility after storage (by naked eye),"Sucrose 9.6%, 1 month",− (dissolved)
same,Re-solubility after storage (by naked eye),"Sucrose 9.6%, 4 months",+ (not dissolved (or deposited))
